The text below walks through data of article PMC3163375, “Design, Synthesis and Biological Evaluation of New 5,5-Diarylhydantoin Derivatives as Selective Cyclooxygenase-2 Inhibitors” (Scientia Pharmaceutica, 2011).

Molecules are shown by their SMILES.

The term IC50 denotes the concentration that inhibits the measured activity by half. The low end stands for inhibition by little substance, the high end for a need for much substance. Usually melting point stands for the temperature, or range, at which the solid turns liquid.

The target in data set [1] is T1, ovine COX-1 (Ovis aries, UniProt P05979).
T1 construct: purchased Cayman Chemical, Ann Arbor, MI, USA
T1 sequence (P05979 25-600): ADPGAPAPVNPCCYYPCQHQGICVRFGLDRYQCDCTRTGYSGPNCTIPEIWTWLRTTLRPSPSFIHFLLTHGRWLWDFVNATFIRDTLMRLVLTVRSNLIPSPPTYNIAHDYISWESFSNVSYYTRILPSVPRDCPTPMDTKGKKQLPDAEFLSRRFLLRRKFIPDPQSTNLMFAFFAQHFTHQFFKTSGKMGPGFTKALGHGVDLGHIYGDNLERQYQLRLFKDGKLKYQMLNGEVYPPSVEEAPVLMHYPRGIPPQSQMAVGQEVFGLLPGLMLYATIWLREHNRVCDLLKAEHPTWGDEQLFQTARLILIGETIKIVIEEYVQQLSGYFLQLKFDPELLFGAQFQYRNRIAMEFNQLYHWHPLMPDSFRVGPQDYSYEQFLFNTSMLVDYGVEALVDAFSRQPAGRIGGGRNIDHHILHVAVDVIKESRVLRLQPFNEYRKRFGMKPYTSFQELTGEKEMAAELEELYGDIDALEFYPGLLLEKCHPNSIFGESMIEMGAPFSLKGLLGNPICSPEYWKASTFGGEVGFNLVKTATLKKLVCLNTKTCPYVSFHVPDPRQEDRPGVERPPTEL
Description: In vitro COX-1 enzyme inhibition, chemiluminescent enzyme assay kit (Cayman). The format is biochemical. Conditions: ovine COX-1/COX-2 assay kit; means of two determinations, deviation < 10% of the mean. How it is done:
(§1) All of the prepared 5,5-diarylhydantoin derivatives having different substituents at the N-3 hydantoin ring were evaluated to investigate the effect of different alkyls on COX-2 selectivity and potency. The ability of the 5,5-diarylhydantoin 4–8 to inhibit the COX-1 and COX-2 isozymes was determined using chemiluminescent enzyme assays (see enzyme inhibition data in Table 1.) according to our previously reported method.
(§2) The ability of the test compounds listed in Table 1 to inhibit ovine COX-1 and COX-2 (IC50 value, μM) was determined using chemiluminescent enzyme assays kit (Cayman Chemical, Ann Arbor, MI, USA) according to our previously reported method.

In data set [2] the target is T2, ovine COX-2 (Ovis aries, UniProt P79208).
T2 construct: purchased Cayman Chemical, Ann Arbor, MI, USA
T2 sequence (P79208 17-603): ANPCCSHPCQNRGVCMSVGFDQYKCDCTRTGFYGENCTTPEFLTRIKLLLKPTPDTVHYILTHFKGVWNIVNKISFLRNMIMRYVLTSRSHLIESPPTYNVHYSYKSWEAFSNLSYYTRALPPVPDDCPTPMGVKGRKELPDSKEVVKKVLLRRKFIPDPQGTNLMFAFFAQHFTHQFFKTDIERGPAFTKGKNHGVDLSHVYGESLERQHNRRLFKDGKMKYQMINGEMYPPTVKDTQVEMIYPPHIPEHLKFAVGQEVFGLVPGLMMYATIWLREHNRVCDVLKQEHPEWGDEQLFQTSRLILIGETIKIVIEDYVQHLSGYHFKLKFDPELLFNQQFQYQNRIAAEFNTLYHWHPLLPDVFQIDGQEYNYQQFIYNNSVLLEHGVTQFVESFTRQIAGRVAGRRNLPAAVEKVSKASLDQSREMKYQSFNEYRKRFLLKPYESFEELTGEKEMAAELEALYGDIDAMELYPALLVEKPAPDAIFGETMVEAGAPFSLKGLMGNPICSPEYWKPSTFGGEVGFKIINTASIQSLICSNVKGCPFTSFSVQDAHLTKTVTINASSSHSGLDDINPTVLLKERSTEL
Description: In vitro COX-2 enzyme inhibition, chemiluminescent enzyme assay kit (Cayman). The format is biochemical. Conditions: for Selectivity index (SI): In vitro COX-2 selectivity index (COX-1 IC50/COX-2 IC50); for IC50: ovine COX-1/COX-2 assay kit, means of two determinations, deviation < 10% of the mean. The method, then: as §1, §2

As for `CCCN1C(=O)NC(c2ccccc2)(c2ccc(S(C)(=O)=O)cc2)C1=O` (stereo not shown) [Compound 7, 5-[4-(Methylsulfonyl)phenyl]-5-phenyl-3-propylimidazolidine-2,4-dione], the melting point fell in the range of 82 to 83 °C. The IC50 in data set [1] was found to be 12000 nM. In data set [2], the “Selectivity index (SI)” value was determined as 70.2 and the midpoint of inhibition, the IC50, lay at 171 nM.
With `CS(=O)(=O)c1ccc(C2(c3ccccc3)NC(=O)NC2=O)cc1` (stereo not shown) [Compound 4, 5-[4-(Methylsulfonyl)phenyl]-5-phenylimidazolidine-2,4-dione], the figures for the IC50 in data set [1] and in data set [2] were more than 100000 nM and 77 nM, respectively. Besides, the “Selectivity index (SI)” value in data set [2] was more than 1298.
Turning to `CCN1C(=O)NC(c2ccccc2)(c2ccc(S(C)(=O)=O)cc2)C1=O` (stereo not shown) [Compound 6, 3-Ethyl-5-[4-(methylsulfonyl)phenyl]-5-phenylimidazolidine-2,4-dione], the melting point was 91 to 92 °C. This compound came in with an IC50 in data set [1] of 20200 nM. In addition, in data set [2], the “Selectivity index (SI)” value was 206.2 and 98 nM corresponded to half-maximal inhibition (IC50).
In the same order, the values of `C=CCN1C(=O)NC(c2ccccc2)(c2ccc(S(C)(=O)=O)cc2)C1=O` (stereo not shown) [Compound 8, 5-[4-(Methylsulfonyl)phenyl]-5-phenyl-3-(prop-2-en-1-yl)imidazolidine-2,4-dione] are 129 to 130 °C, 15000 nM, 151.1 and 99 nM.
With `CN1C(=O)NC(c2ccccc2)(c2ccc(S(C)(=O)=O)cc2)C1=O` (stereo not shown) [Compound 5, 3-Methyl-5-[4-(methylsulfonyl)phenyl]-5-phenylimidazolidine-2,4-dione], the melting point was 212 to 214 °C. The compound further displayed an IC50 in data set [1] of 22700 nM. In addition, in data set [2], the “Selectivity index (SI)” value is on record as 280.1 and the IC50 was 81 nM.
